A word on the IC50: it is the concentration needed to halve the response being measured.

For one compound, IC50 results are on record in patent US20160244436A1, “NOVEL FUNCTIONALIZED 5-(PHENOXYMETHYL)-1,3-DIOXANE ANALOGS EXHIBITING CYTOCHROME P450 INHIBITION AND THEIR METHOD OF USE” (CORTENDO AB (PUBL), priority 2013, published 2016).

In data set [1] the target is T1, recombinant CYP-11 (Homo sapiens, UniProt P15538).
T1 construct: expressed in transfected cells; host or cells: AD293
T1 sequence (P15538 25-503): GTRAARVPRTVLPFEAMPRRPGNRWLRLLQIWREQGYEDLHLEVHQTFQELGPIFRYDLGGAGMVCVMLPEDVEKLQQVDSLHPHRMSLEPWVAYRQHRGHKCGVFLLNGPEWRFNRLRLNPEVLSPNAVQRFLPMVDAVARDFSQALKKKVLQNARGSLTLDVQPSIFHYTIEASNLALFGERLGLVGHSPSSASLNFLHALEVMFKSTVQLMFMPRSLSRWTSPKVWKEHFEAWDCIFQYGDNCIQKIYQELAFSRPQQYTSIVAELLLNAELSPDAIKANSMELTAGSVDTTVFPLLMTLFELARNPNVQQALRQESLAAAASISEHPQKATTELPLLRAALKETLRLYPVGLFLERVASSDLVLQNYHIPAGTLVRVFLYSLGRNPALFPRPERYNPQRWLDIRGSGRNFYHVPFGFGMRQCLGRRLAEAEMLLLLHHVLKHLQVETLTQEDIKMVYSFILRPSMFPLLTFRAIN
Nature of the data set: Cyp11 assay: AD293 cells over-expressing recombinant CYP-11, cortisol formation from 11-deoxycortisol by LC/MS. Format: cell-based. As to the method: Cyp11 assay protocol: AD293 cells that stably over-express recombinant CYP-11 were seeded in 96 well plates coated with poly D-lysine (15,000 cell per well) and incubated at 37° C. for 24 hours in Dulbecco's Modified Eagle Medium (DMEM) with Fetal Bovine Serum (FBS) that is stripped of hormones by charcoal treatment. The media is then removed, the cells are washed once with Phosphate buffer saline solution, and 50 μL Dulbecco's Modified Eagle Medium (DMEM) with Fetal Bovine Serum (FBS) that is stripped of hormones by charcoal treatment is added. Compounds of the disclosure are then added to the wells in eight concentration spanning 10 μM to 4.5 nM, and the plates are incubated for an additional 60 minutes at 37° C. 11-deoxycortisol is then added (2.0 μM) and the plates are incubated for an additional 12 hours at 37° C. After incubation, 50 uL of the supernatant (medium) is transferred into a fresh plate and 150 uL of an acetonitrile solution containing 200 ng/ml of Telmisartan is added. The sample is mixed and then placed in a centrifuge at 2000 rpm for 5 minutes. 100 uL of the supernatant is transferred into a fresh 96 well deep well plate, 100 uL of 1:1 methanol:water was added, the solution was mixed and then analyzed by LC/MS for the presence of cortisol using an Agilent 1200 RRLC/ABSCIEX API4000 LC-MS or Shimadzu Prominance/ABSCIEX API4000 LC-MS to determine IC5os of the compounds of the disclosure.

Data set [2] has as its target Cyp3A4 (Homo sapiens, UniProt P08684). Description: Cyp3A4 off-target counter screen. Format: in vitro ADME. Conditions: off-target enzyme.
The test system of data set [3] is Bile Acid (Cyp7A surrogate). Nature of the data set: Bile acid secretion / synthesis inhibition (Cyp7A surrogate). Type of data set: cell-based.
Data set [4] deals with T2, recombinant CYP-17 (Homo sapiens, UniProt P05093).
T2 construct: expressed in transfected cells; host or cells: AD293
T2 sequence (P05093 1-508): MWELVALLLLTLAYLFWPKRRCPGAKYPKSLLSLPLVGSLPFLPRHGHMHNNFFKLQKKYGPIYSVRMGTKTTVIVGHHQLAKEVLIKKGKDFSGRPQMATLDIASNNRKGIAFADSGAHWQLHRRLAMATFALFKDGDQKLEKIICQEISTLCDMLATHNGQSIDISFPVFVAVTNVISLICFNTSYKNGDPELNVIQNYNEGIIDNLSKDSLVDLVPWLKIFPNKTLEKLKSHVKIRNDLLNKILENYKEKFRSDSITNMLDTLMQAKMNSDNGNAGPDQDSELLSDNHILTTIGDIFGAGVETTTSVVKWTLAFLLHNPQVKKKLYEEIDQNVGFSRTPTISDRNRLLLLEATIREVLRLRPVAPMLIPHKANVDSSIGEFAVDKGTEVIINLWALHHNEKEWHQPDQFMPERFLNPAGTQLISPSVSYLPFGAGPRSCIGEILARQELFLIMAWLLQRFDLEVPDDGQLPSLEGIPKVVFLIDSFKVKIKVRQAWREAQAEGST
Nature of the data set: Cyp17 assay: AD293 cells over-expressing recombinant CYP-17, 3H-acetic acid release from [21-3H] 17α-hydroxyl-Pregnenolone. Type of data set: cell-based. As to the method:
Cyp17 assay protocol: AD293 cells that stably over-express recombinant CYP-17 were seeded in 96 well plates coated with poly D-lysine (15,000 cell per well) and incubated at 37° C. for 24 hours in Dulbecco's Modified Eagle Medium (DMEM) with Fetal Bovine Serum (FBS) that is stripped of hormones by charcoal treatment. The media is then removed, the cells are washed once with Phosphate buffer saline solution, and 50 μL Dulbecco's Modified Eagle Medium (DMEM) with Fetal Bovine Serum (FBS) that is stripped of hormones by charcoal treatment is added. Compounds of the disclosure are then added to the wells in eight concentration spanning 10 μM to 4.5 nM, and the plates are incubated for an additional 60 minutes at 37° C. [21-^3H] 17α-hydroxyl-Pregnenolone is then added (50 nCi per well, 31.25 nM) and the plates are incubated for an additional 4 hours at 37° C. The media is then collected, 200 μL, of chloroform is added, and the mixture is shaken for 1 hour. The aqueous layer is then separated and analyzed for the presence of ^3H-acetic acid using a Perkin Elmer Topcount NXT to determine IC50s of the compounds of the disclosure.

Cyp3A4, sequence (P08684 whole entry): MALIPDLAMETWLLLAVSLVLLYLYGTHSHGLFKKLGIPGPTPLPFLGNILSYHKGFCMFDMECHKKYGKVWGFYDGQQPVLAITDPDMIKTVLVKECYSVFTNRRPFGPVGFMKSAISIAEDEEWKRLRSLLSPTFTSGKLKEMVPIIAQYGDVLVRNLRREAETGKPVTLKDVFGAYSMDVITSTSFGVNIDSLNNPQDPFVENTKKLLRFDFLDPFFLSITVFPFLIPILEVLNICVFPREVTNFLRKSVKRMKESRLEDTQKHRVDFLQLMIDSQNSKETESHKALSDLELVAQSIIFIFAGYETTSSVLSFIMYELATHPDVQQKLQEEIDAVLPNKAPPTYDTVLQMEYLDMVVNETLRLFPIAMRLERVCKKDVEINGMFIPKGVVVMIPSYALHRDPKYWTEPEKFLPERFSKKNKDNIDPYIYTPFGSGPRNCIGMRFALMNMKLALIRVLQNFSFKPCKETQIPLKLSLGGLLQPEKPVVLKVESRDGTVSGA

Take `CC(=O)N1CCN(c2ccc(CO[C@H]3CO[C@](Cn4ccnc4)(c4ccc(Cl)cc4Cl)OC3)cc2)CC1` [drawing 112]: the IC50 in data set [1] was determined as 0.012 µM; in data set [2], 0.109 µM; in data set [3], 0.88 µM; in data set [4] it was 0.008 µM.
